In patent US9790169B2, “IDO inhibitors” (BRISTOL-MYERS SQUIBB COMPANY, priority 2015, dated 2017):

Each molecule was assayed against human IDO1 (Homo sapiens, UniProt P14902) (assay: Assessment of human IDO-1 inhibitory activity in HEK cells (human IDO1/HEK293 cells, kynurenine read-out with Ehrlich reagent, absorbance 490 nm)). Conditions: HEK Human IDO-1 cellular assay.
Type: cell-based
Design: expressed in transfected cells
Method in brief: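 HEK293 cells stably expressing human IDO1 were seeded at 10,000 per well in phenol red-free RPMI with 10% FBS, treated with compound for 20 h at 37 °C. Kynurenine was measured after TCA (0.2% final) and 30 min at 50 °C, using Ehrlich reagent, A490. IC50 normalised to DMSO (0%) and 500 nM reference standard (100%).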

Chain of human IDO1 (P14902 whole entry): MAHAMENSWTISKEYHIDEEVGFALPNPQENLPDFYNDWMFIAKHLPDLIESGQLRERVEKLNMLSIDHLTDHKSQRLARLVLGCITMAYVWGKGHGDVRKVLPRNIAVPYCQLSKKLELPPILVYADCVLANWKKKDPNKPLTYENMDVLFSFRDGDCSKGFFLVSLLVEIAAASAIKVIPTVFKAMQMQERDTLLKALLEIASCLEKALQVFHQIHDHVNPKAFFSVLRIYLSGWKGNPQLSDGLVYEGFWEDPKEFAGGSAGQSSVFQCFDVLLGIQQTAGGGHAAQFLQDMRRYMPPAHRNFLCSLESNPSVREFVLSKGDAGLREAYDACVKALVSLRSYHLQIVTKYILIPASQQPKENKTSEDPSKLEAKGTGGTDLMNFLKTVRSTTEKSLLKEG

CCC(CC(=O)O)c1ccc(N2CCOC[C@H]2C(C)C)c(NC(=O)Nc2ccc(OC)cc2F)c1 (single isomer, unassigned) [Example 897] and CCN(c1ccc([C@@H](COC)CC(=O)O)cc1NC(=O)Nc1ccc(OC)cc1F)C1CCOCC1 (single isomer, unassigned) [Example 424] cannot be ordered by IC50: greater than 50 nM for the first, greater than 50 nM for the second.

CCOc1ncc(Nc2cc([C@@H](CC)CC(=O)NS(C)(=O)=O)ccc2N(CC)C2CCOCC2)cn1 (stereo in doubt) [Example 1076, 3-(3-((2-Ethoxypyrimidin-5-yl)amino)-4-(ethyl(tetrahydro-2H-pyran-4-yl)amino)phenyl)-N-(methylsulfonyl)pentanamide] and CCOc1ncc(Nc2cc(C(CC)CC(=O)O)ccc2N(CC2CC2)C(C)C)cn1 (single isomer, unassigned) [Example 718, 3-(4-((cyclopropylmethyl) (isopropyl)amino)-3-((2-ethoxypyrimidin-5-yl)amino)phenyl)pentanoic acid] cannot be ordered by IC50: less than 50 nM for the first, less than 50 nM for the second.

CCC(CC(=O)O)c1ccc(N2C[C@@H]3C[C@H]2CN3C(=O)OC(C)(C)C)c(Nc2ccccc2)c1 (single isomer, unassigned) [Example 446] and CCC(CC(=O)O)c1ccc(N2C[C@@H]3C[C@H]2CN3C(=O)OC(C)(C)C)c(Nc2ccc(C)cc2)c1 (single isomer, unassigned) [Example 447] cannot be ordered by IC50: less than 50 nM for the first, less than 50 nM for the second.

CC[C@H](CC(=O)O)c1ccc(N(CC)C2CCOCC2)c(Nc2ccc(OCC3CC3)cc2)c1 (single isomer, unassigned) [Example 516] and CCCN(c1ccc([C@@H](CC)CC(=O)O)cc1Nc1ccc(Cl)cc1)C1CCOCC1 (single isomer, unassigned) [Example 541] cannot be ordered by IC50: less than 5 nM for the first, less than 5 nM for the second.

Going from CCC(CC(=O)O)c1cc(F)c(N(CC(C)C)CC(C)C)c(Nc2ccnc(N3CCOCC3)n2)c1 (single isomer, unassigned) [Example 105, 3-(4-(diisobutylamino)-3-fluoro-5-((2-morpholinopyrimidin-4-yl)amino)phenyl) pentanoic acid] to COCC(CC(=O)O)c1ccc(N(CC(C)C)C2CCCCC2)c(NC(=O)Nc2cc(C)on2)c1 (single isomer, unassigned) [987-1], the IC50 falls from greater than 50 nM to less than 50 nM.

First: CCN(c1ccc([C@@H](COC)CC(=O)O)cc1NC(=O)Nc1ccc(C)cc1)C1CCOCC1 (single isomer, unassigned) [Example 433]
Second: COCC(CC(=O)O)c1ccc(N(CC2CC2)C2CCOCC2)c(Nc2ccc(Cl)cc2)c1 (single isomer, unassigned) [Example 679, 3-(3-((4-Chlorophenyl)amino)-4-((cyclopropylmethyl)(tetrahydro-2H-pyran-4-yl)amino)phenyl)-4-methoxybutanoic acid]
The IC50 of the first is higher: greater than 50 nM for the first, less than 5 nM for the second. The second is the more potent here.

Going from CCOc1ccc(Nc2cc(C(C)CC(=O)O)ccc2N(CC(C)(C)O)C2CCCCC2)c(F)c1 (single isomer, unassigned) [Example 52, 3-(4-(cyclohexyl(2-hydroxy-2-methylpropyl)amino)-3-((4-ethoxy-2-fluorophenyl)amino)phenyl)butanoic acid] to Cc1cc(CC(=O)Nc2cc(C(CC(=O)O)C3CC3)ccc2N(CC(C)C)C2CCCCC2)no1 (single isomer, unassigned) [Example 1251, 3-(4-(Cyclohexyl(isobutyl)amino)-3-(2-(5-methylisoxazol-3-yl)acetamido)phenyl)-3-cyclopropylpropanoic acid], the IC50 falls from greater than 50 nM to less than 50 nM.

Compared with CCOc1ncc(Nc2cc(C(C)(C)CC(=O)O)ccc2N2C[C@@H](C)O[C@@H](C)C2)cn1 [Example 736, 3-(4-((2S,6R)-2,6-dimethylmorpholino)-3-((2-ethoxypyrimidin-5-yl)amino)phenyl)-3-methylbutanoic acid], CC(C)CN(c1ccc(C(CC(=O)O)C2CC2)cc1NC(=O)Nc1ccc(Cl)cc1F)C1CCOCC1 (single isomer, unassigned) [Example 1199 Enantiomer 1, 3-(3-(3-(4-Chloro-2-fluorophenyl)ureido)-4-(isobutyl(tetrahydro-2H-pyran-4-yl)amino)phenyl)-3-cyclopropylpropanoic acid] is lower in IC50: greater than 50 nM for the first, less than 5 nM for the second. The second is the more potent here.
